Test: Entrapment efficiency of small molecules in L-His crystals (HPLC of supernatant)
Format: physicochemical
Conditions: within L-His crystals; determined by HPLC
Procedure: A 30 mg/mL solution of L-His (>99%, Sigma-Aldrich) was prepared by dissolving L-His powder in milli-Q water using a vortex mixer at ambient temperature in a Corning® 15 mL centrifuge tube with a closed cap. Then 500 μL of the aqueous solution of L-His and 500 μL of 200 proof ethanol (KOPTEC, PA, US) was added to 200 μL of the small molecule solution (2 mg/mL). The small molecules used in this study were Nile red (>98%, Sigma-Aldrich), pyrene (>98%, Sigma-Aldrich), β-carotene (>97%, Sigma-Aldrich), and doxorubicin HCl (DOX, >98%, Fluka, Mexico City, Mexico). The solution was vortexed for 15 seconds and kept static at ambient temperature. After 3 hours, crystals were collected and washed with ethanol to remove the free small molecules from the surface of the crystals and the supernatant was collected to measure the concentration of non-entrapped small molecules using HPLC. […] Each individual sample of small molecules was quantified based on an optimized method reported in the literature for β-carotene (Etzbach et al., “Characterization of Carotenoid Profiles in Goldenberry (Physalis peruviana L.) Fruits at Various Ripening Stages and in Different Plant Tissues by HPLC-DAD-APCI-MS^n,” Food Chem. 245:508-517 (2018), which is hereby incorporated by reference in its entirety), Nile red (Wu et al., “Drug Delivery to the Skin from Sub-Micron Polymeric Particle Formulations: Influence of Particle Size and Polymer Hydrophobicity,” Pharm Res. 26(8):1995-2001 (2009), which is hereby incorporated by reference in its entirety), pyrene (Jia et al., “Effect of Root Exudates on the Mobility of Pyrene in Mangrove Sediment-Water System,” Catena 162:396-401 (2017), which is hereby incorporated by reference in its entirety), and DOX (Chi et al., “Redox-Sensitive and Hyaluronic Acid Functionalized Liposomes for Cytoplasmic Drug Delivery to Osteosarcoma in Animal Models,” J. Control Release 261:113-125 (2017), which is hereby incorporated by reference in its entirety). […]
With `CCN(CC)c1ccc2nc3c4ccccc4c(=O)cc-3oc2c1` [Nile red] the Entrapment efficiency was 62%. Work on `c1cc2ccc3cccc4ccc(c1)c2c34` [pyrene] yielded an Entrapment efficiency of 87%. `CC1=C(/C=C/C(C)=C/C=C/C(C)=C/C=C/C=C(C)/C=C/C=C(C)/C=C/C2=C(C)CCCC2(C)C)C(C)(C)CCC1` [β-carotene] showed an Entrapment efficiency of roughly 96%.
